Measured values reported in publication PMC6133161, “Thiazoles with cyclopropyl fragment as antifungal, anticonvulsant, and anti-Toxoplasma gondii agents: synthesis, toxicity evaluation, and molecular docking study” (Medicinal Chemistry Research, 2018).
Converted amounts (≈) assume the structure as drawn.

Tests used:
[1] = test system: Candida krusei ATCC 14243; assay: Broth microdilution MIC/MFC, reference strain; assay type: cell-based; settings: Pichia kudriavzevii, ATCC14243, C. krusei ATCC 14243
Description: (§1) The examined compounds 3a–3j were screened in vitro for antibacterial and antifungal activities using the broth microdilution method according to European Committee on Antimicrobial Susceptibility Testing (EUCAST) (EUCAST [2003]) and Clinical and Laboratory Standards Institute guidelines (CLSI [2012]) against reference strains of microorganisms from American Type Culture Collection (ATCC), including fungi belonging to yeasts (Candida albicans ATCC 2091, Candida albicans ATCC 10231, Candida parapsilosis ATCC 22019 and Candida krusei ATCC 14243).
(§2) In the study of antifungal activity of the compounds 3a–3j, 15 clinical strains of different species of yeasts from Candida species, namely C. albicans, C. dubliniensis C. famata, C. inconspicua, C. krusei, C. tropicalis, C. glabrata, C. lambica, C. kefyr, C. lusitaniae, C. parapsilosis, C. guilliermondii, C. lusitaniae, C. pulcherrima and C. sake were also used. These fungi were isolated by the author (from Department of Pharmaceutical Microbiology of Medical University in Lublin, Poland) from different clinical materials, e.g., from upper respiratory tract of hospitalized patients including cancer patients (i.e., with non-small cell lung cancer or hematological malignancies). Some patients were after pre-operative or post-operative chemotherapy (treated with etoposide or cis-platin given in doses according to the standard procedures), patients with chronic hepatitis C (undergoing peginterferon and ribavirin therapy or without antiviral therapy), patients with diabetes, elderly people, aged of 65 years old or older, staying in close population, such as a care centre and people staying outside the home care. The Ethical Committee of the Medical University of Lublin approved the study protocol (No. KE-0254/75/2011). The isolates were identified by standard diagnostic methods—biochemical microtest, e.g., API 20C AUX, ID 32C, API Candida (bioMérieux) on the basis of assimilation of various substrates. All the used microbial cultures were first subcultured on nutrient agar or Sabouraud agar for bacteria and fungi, respectively. The RPMI 1640 with MOPS (for fungi) were inoculated with the suspensions of fungal species. Microbial suspensions were prepared in sterile saline (0.85% NaCl) with an optical density of 0.5 McFarland standard scale (Wiegand et al. [2008]). Samples containing examined compounds were dissolved in dimethyl sulfoxide (DMSO). Furthermore, fungal suspensions were put onto Petri dishes with solid media containing 2 mg/ml of the tested compounds followed incubation under appropriate conditions. The inhibition of microbial growth was judged by comparison with a control culture prepared without any sample tested. Nystatin (Sigma) was used as a reference antifungal compound. Subsequently MIC minimal inhibitory concentration (MIC) of the compounds was examined by the microdilution broth method, using their two-fold dilutions in RPMI 1640 broth with MOPS prepared in 96-well polystyrene plates. Final concentrations of the compounds ranged from 1000 to 0.0038 µg/ml. Microbial suspensions were prepared in sterile saline with an optical density of 0.5 McFarland standard. Next fungal suspension was added per each well containing broth and various concentrations of the examined compounds. After incubation, the MIC was assessed spectrophotometric as the lowest concentration of the samples showing complete fungal growth inhibition. Appropriate DMSO, growth and sterile controls were carried out. The medium with no tested substances was used as a control (Wiegand et al. [2008]). The minimal fungicidal concentration (MFC) are defined as the lowest concentration of the compounds that is required to kill a particular fungal species. MFC was determined by removing the culture using for MIC determinations from each well and spotting onto appropriate agar medium. The plates were incubated. The lowest compounds concentration with no visible growth observed was assessed as a fungicidal concentration. […]

[2] = test system: Candida parapsilosis ATCC 22019; assay: Broth microdilution MIC/MFC, reference strain; assay type: cell-based; settings: Lodderomyces parapsilosis, ATCC22019, C. parapsilosis ATCC 22019
Description: as §1, §2

[3] = test system: Candida albicans ATCC 2091; assay: Broth microdilution MIC/MFC, reference strain; assay type: cell-based; settings: Candida albicans, ATCC2091, C. albicans ATCC 2091
Description: as §1, §2

[4] = test system: Candida albicans ATCC 10231; assay: Broth microdilution MIC/MFC, reference strain; assay type: cell-based; settings: Candida albicans, ATCC10231, C. albicans ATCC 10231
Description: as §1, §2

[5] = test system: L929 and VERO cell lines; assay: MTT cytotoxicity assay; assay type: cell-based, mouse; African green monkey; settings: 24 h, higher concentrations not reached due to limited solubility
[6] = test system: 6-Hz psychomotor seizures; assay: 6-Hz test; assay type: in vivo, mouse; settings: Mus musculus, mice, 100 mg/kg ip, read-out: X/Y number of mice protected (X) per number of mice tested (Y) (converted)
Experimental: For in vivo tests that assessed anticonvulsant properties of the test compounds 3a-3j adult male Albino Swiss (CD-1) mice weighing between 18 and 22 g were used. The animals were housed in groups of ten mice per cage at room temperature of 22 ± 2 °C, under light/dark (12:12) cycle. The animals had free access to food and tap water before the experiments. The ambient temperature of the experimental room and humidity (50 ± 10%) were kept consistent throughout all the tests. For behavioral experiments the animals were selected randomly. Each experimental group consisted of 4-8 animals/dose. The experiments were performed between 9 AM and 2 PM. Immediately after the in vivo assay the animals were euthanized by cervical dislocation. All procedures were approved by the Local Ethics Committee of the Jagiellonian University in Krakow (34/2018, 1.02.2018)) and the treatment of animals was in full accordance with ethical standards laid down in respective Polish and EU regulations (Directive No. 86/609/EEC). For in vivo tests the compounds 3a-3j were prepared in 1% Tween 80 solution (POCH, Poland) and they were administered by the intraperitoneal route. Control mice received 1% Tween 80. Pentylenetetrazole (PTZ), pilocarpine hydrochloride and scopolamine butylbromide were provided by Sigma Aldrich (Poland). For the tests they were prepared in 0.9% saline (Polfa Kutno, Poland). PTZ and pilocarpine were administered 60 min after the test compound or vehicle. To assess anticonvulsant properties of the test compounds anticonvulsant screening was conducted. Four assays were used: PTZ, maximal electroshock seizure (MES), 6-Hz and pilocarpine tests. In these assays the dose of 100 mg/kg was chosen as a starting dose. If it turned out to be effective, a lower dose (30 mg/kg) was also tested. This test was performed according to (Barton et al. [2001]). It is an alternative electroshock paradigm that involves low-frequency (6 Hz), long-duration (3 s) electrical stimulation. Corneal stimulation (0.2 ms-duration monopolar rectangular pulses at 6 Hz for 3 s) was delivered by a constant-current device. During electrical stimulation mice were manually restrained and released into the observation cage immediately after current application. At the time of drug administration a drop of 0.5% tetracaine ([…] sterile solution, […] Pharmaceuticals Inc., USA) was applied into the eyes of all animals. Prior to the placement of corneal electrodes, a drop of 0.9% saline was applied on the eyes. In this model seizures manifest in 'stunned' posture associated with rearing, forelimb automatic movements and clonus, twitching of the vibrissae and Straub-tail. At the end of the seizure episode the animals resume their normal exploratory behavior. In this test protection against a seizure episode is considered as the end point and animals are considered to be protected if they resume their normal exploratory behavior within 10 s after electrical stimulation.

MIC ([1]; read-out: MIC): 0.12 µg/mL (≈ 0.432 µM)
MIC ([2]; read-out: MIC): 0.48 µg/mL (≈ 1.73 µM)
MIC ([3]; read-out: MIC): 0.12 µg/mL (≈ 0.432 µM)
MIC ([4]; read-out: MIC): 0.12 µg/mL (≈ 0.432 µM)
Compound: Clc1ccc(-c2csc(N/N=C/C3CC3)n2)cc1 [Compound 3c, (E)-4-(4-Chlorophenyl)-2-(2-(cyclopropylmethylene)hydrazinyl)thiazole]
MFC ([1]; read-out: MFC): 0.98 µg/mL (≈ 3.53 µM)
MFC ([2]; read-out: MFC): 1.95 µg/mL (≈ 7.02 µM)
MFC ([3]; read-out: MFC): 0.48 µg/mL (≈ 1.73 µM)
MFC ([4]; read-out: MFC): 0.24 µg/mL (≈ 0.864 µM)
highest possible non-cytotoxic concentration [5]: 7.81 µg/mL
responders at 100 mg/kg [6]: 25%
